Data reported in patent US9045505B2, “Nitric oxide donors” (University of Otago, priority 2006, dated 2015).

Test system: Langendorff-perfused mouse hearts
Experiment: Cardiac ischemia-reperfusion injury in Langendorff-perfused mouse hearts (ex vivo)
Protocol: FIG. 16 is a series of graphs showing the vasodilatory and tissue protective effects of MitoSNAP. (a) Dose-response curves for the effect of MitoSNAP and related compounds on blood vessel relaxation. The effects of intact or decomposed MitoSNAP and SNAP on pre-contracted rat thoracic aorta mounted in a myograph were determined Data represent means±sem. For MitoSNAP n=8 from experiments on two independent rat aorta preparations. For decomposed MitoSNAP and SNAP experiments the data (n=4) are from one aorta preparation. (b) EC50 for the effect of MitoSNAP and SNAP on blood vessel relaxation. The EC50 values were determined from experiments shown in (a) above. ***p<0.001 by Student's unpaired t-test. (c & d) MitoSNAP protects against I/R injury in Langendorff-perfused mouse hearts. Hearts from C57BL6 mice were Langendorff perfused and subjected to 25 min global normothermic ischemia followed by 1 h of reperfusion. MitoSNAP or MitoNAP (100 nM final), or vehicle carrier, was added via an infusion port above the aortic cannula during reperfusion. Hearts were then stained with 2,3,5-triphenyltetrazolium chloride (TTC) to visualize infarct. (c) Protection of heart function by MitoSNAP during I/R injury. Left ventricular contractile function was recorded throughout the I/R protocol.
FIG. 18 is a graph showing the effect of pre-ischemic administration of MitoSNAP or MitoNAP on recovery of heart function (rate pressure product) from IR injury. Experiments were carried out exactly as described in FIGS. 16c & 16d, except that MitoSNO1 or MitoNAP were infused into the heart for 20 min, followed by a 2 min wash-out period, prior to the onset of ischemia. White symbols=vehicle control, black symbols=MitoSN01, gray symbols=MitoNAP. Data are means±sem, n≧6. […]
There is considerable evidence pointing to mitochondrial damage during the reperfusion phase of cardiac ischemia-reperfusion (I/R) injury. […] Therefore we determined if MitoSNAP could decrease I/R injury in a mouse heart Langendorff model (FIGS. 16c & d). […]

Which infarct size (100 nM during reperfusion) does the source give for CC(=O)NC(C(=O)NCCCCC[P+](c1ccccc1)(c1ccccc1)c1ccccc1)C(C)(C)SN=O.CS(=O)(=O)[O-] (stereo not drawn) [MitoSNAP, [5-(2-acetylamino-3-methyl-3-nitrosothio-butyrylamino)-penty1]-triphenylphosphonium methanesulfonate] here?
The infarct size was “decrease in infarct size”.

What about the “recovery of heart function (rate pressure product)” value (100 nM during reperfusion, 25 min ischemia, 1 h reperfusion) of the same compound?
Its value is “better recovery of heart function”.

And the “protection against I/R injury” value (delivered before the I/R injury)?
Its value is “small degree of protection”.
